Test results as given in ChEMBL document CHEMBL1137662, “Effect of oral treatment with hexadecyloxypropyl-[(S)-9-(3-hydroxy-2- phosphonylmethoxypropyl)adenine] [(S)-HPMPA] or octadecyloxyethyl-(S)-HPMPA on cowpox or vaccinia virus infections in mice” (Antimicrob Agents Chemother, 2007).
Active and inactive are the calls of the source. No cut-off for these calls is given here.

Legend:
Vaccinia virus [1] = assay: Antiviral activity against Vaccinia virus WR infected BALB/c mouse assessed as mortality at 30 mg/kg, po treated for 5 days after 48 hrs of viral inoculation; assay type: functional, Orthopoxvirus vaccinia
Cowpox virus [2] = assay: Antiviral activity against Cowpox virus Brighton infected BALB/c mouse assessed as reduction of virus titer in lung at 30 mg/kg, po treated for 5 days after 24 hrs of viral inoculation; assay type: functional, organism-based; set-up: dose 30 mg/kg; conditions: Cowpox virus (Brighton Red)
Vaccinia virus [3] = assay: Antiviral activity against Vaccinia virus WR infected BALB/c mouse assessed as mean death day at 30 mg/kg, po treated for 5 days after 72 hrs of viral inoculation; assay type: functional, Orthopoxvirus vaccinia
Cowpox virus [4] = assay: Antiviral activity against Cowpox virus Brighton infected BALB/c mouse assessed as mortality at 3 mg/kg, po treated for 5 days after 24 hrs of viral inoculation; assay type: functional, Cowpox virus (Brighton Red)
Vaccinia virus [5] = assay: Antiviral activity against Vaccinia virus WR infected BALB/c mouse assessed as log reduction of viral titer per gram of spleen at 30 mg/kg, po treated for 5 days after 24 hrs of viral inoculation; assay type: functional, Orthopoxvirus vaccinia
Vaccinia virus [6] = assay: Antiviral activity against Vaccinia virus WR infected BALB/c mouse assessed as mortality at 30 mg/kg, po treated for 5 days after 24 hrs of viral inoculation; assay type: functional, Orthopoxvirus vaccinia
[7] = Selectivity index, ratio of CC50 for HFF cells to EC50 for Cowpox virus Brighton; assay type: toxicity, cell-based; conditions: human, read-out: Ratio CC50/EC50
Cowpox virus [8] = assay: Antiviral activity against Cowpox virus Brighton infected BALB/c mouse assessed as mean death day at 30 mg/kg, po treated for 5 days after 24 hrs of viral inoculation; assay type: functional, Cowpox virus (Brighton Red)
Cowpox virus [9] = assay: Antiviral activity against Cowpox virus Brighton infected BALB/c mouse assessed as mean death day at 3 mg/kg, po treated for 5 days after 72 hrs of viral inoculation; assay type: functional, Cowpox virus (Brighton Red)
Cowpox virus [10] = assay: Antiviral activity against Cowpox virus Brighton in HFF cells assessed as reduction of viral replication after 3 days; assay type: functional, organism-based, Cowpox virus (Brighton Red); conditions: 72 h
Cowpox virus [11] = assay: Antiviral activity against Cowpox virus Brighton infected BALB/c mouse assessed as mean death day at 10 mg/kg, po treated for 5 days after 24 hrs of viral inoculation; assay type: functional, Cowpox virus (Brighton Red)
Vaccinia virus [12] = assay: Antiviral activity against Vaccinia virus WR infected BALB/c mouse assessed as mean death day at 30 mg/kg, po treated for 5 days after 48 hrs of viral inoculation; assay type: functional, Orthopoxvirus vaccinia
Cowpox virus [13] = assay: Antiviral activity against Cowpox virus Brighton infected BALB/c mouse assessed as log reduction of viral titer per gram of kidney at 30 mg/kg, po treated for 5 days after 24 hrs of viral inoculation; assay type: functional, Cowpox virus (Brighton Red)
Vaccinia virus [14] = assay: Antiviral activity against Vaccinia virus WR in HFF cells assessed as reduction of viral replication after 3 days; assay type: functional, organism-based; conditions: Orthopoxvirus vaccinia, 72 h
Cowpox virus [15] = assay: Antiviral activity against Cowpox virus Brighton infected BALB/c mouse assessed as mortality at 30 mg/kg, po treated for 5 days after 48 hrs of viral inoculation; assay type: functional, Cowpox virus (Brighton Red)
Cowpox virus [16] = assay: Antiviral activity against Cowpox virus Brighton infected BALB/c mouse assessed as mortality at 30 mg/kg, po treated for 5 days after 72 hrs of viral inoculation; assay type: functional, Cowpox virus (Brighton Red)
Cowpox virus [17] = assay: Antiviral activity against Cowpox virus Brighton infected BALB/c mouse assessed as mortality at 10 mg/kg, po treated for 5 days after 48 hrs of viral inoculation; assay type: functional, Cowpox virus (Brighton Red)
Vaccinia virus [18] = assay: Antiviral activity against Vaccinia virus WR infected BALB/c mouse assessed as mean death day at 10 mg/kg, po treated for 5 days after 72 hrs of viral inoculation; assay type: functional, Orthopoxvirus vaccinia
Cowpox virus [19] = assay: Antiviral activity against Cowpox virus Brighton infected BALB/c mouse assessed as mean death day at 30 mg/kg, po treated for 5 days after 72 hrs of viral inoculation; assay type: functional, Cowpox virus (Brighton Red)
Cowpox virus [20] = assay: Antiviral activity against Cowpox virus Brighton infected BALB/c mouse assessed as mortality at 10 mg/kg, po treated for 5 days after 72 hrs of viral inoculation; assay type: functional, Cowpox virus (Brighton Red)
Cowpox virus [21] = assay: Antiviral activity against Cowpox virus Brighton infected BALB/c mouse assessed as mean death day at 3 mg/kg, po treated for 5 days after 48 hrs of viral inoculation; assay type: functional, Cowpox virus (Brighton Red)
Cowpox virus [22] = assay: Antiviral activity against Cowpox virus Brighton infected BALB/c mouse assessed as mean death day at 30 mg/kg, po treated for 5 days after 48 hrs of viral inoculation; assay type: functional, Cowpox virus (Brighton Red)
Cowpox virus [23] = assay: Antiviral activity against Cowpox virus Brighton infected BALB/c mouse assessed as mortality at 3 mg/kg, po treated for 5 days after 72 hrs of viral inoculation; assay type: functional, Cowpox virus (Brighton Red)
Cowpox virus [24] = assay: Antiviral activity against Cowpox virus Brighton infected BALB/c mouse assessed as mean death day at 10 mg/kg, po treated for 5 days after 48 hrs of viral inoculation; assay type: functional, Cowpox virus (Brighton Red)
Cowpox virus [25] = assay: Antiviral activity against Cowpox virus Brighton infected BALB/c mouse assessed as mean death day at 10 mg/kg, po treated for 5 days after 72 hrs of viral inoculation; assay type: functional, Cowpox virus (Brighton Red)
[26] = Selectivity index, ratio of CC50 for HFF cells to EC50 for Vaccinia virus Copenhagen; assay type: toxicity, cell-based; conditions: human, read-out: Ratio CC50/EC50
Vaccinia virus [27] = assay: Antiviral activity against Vaccinia virus Copenhagen in HFF cells assessed as reduction of viral replication after 3 days; assay type: functional, organism-based; conditions: Orthopoxvirus vaccinia, 72 h
[28] = Cytotoxicity against HFF cells after 7 days; assay type: cell-based; conditions: human
Cowpox virus [29] = assay: Antiviral activity against Cowpox virus Brighton infected BALB/c mouse assessed as mortality at 10 mg/kg, po treated for 5 days after 24 hrs of viral inoculation; assay type: functional, Cowpox virus (Brighton Red)
Vaccinia virus [30] = assay: Toxicity in Vaccinia virus WR infected BALB/c mouse assessed as survival at 30 mg/kg, po treated for 5 days after 24 hrs of viral inoculation; assay type: functional, organism-based; set-up: dose 30 mg/kg; conditions: Orthopoxvirus vaccinia
Vaccinia virus [31] = assay: Antiviral activity against Vaccinia virus WR infected BALB/c mouse assessed as mean death day at 30 mg/kg, po treated for 5 days after 24 hrs of viral inoculation; assay type: functional, Orthopoxvirus vaccinia
Vaccinia virus [32] = assay: Antiviral activity against Vaccinia virus WR infected BALB/c mouse assessed as mortality at 10 mg/kg, po treated for 5 days after 48 hrs of viral inoculation; assay type: functional, Orthopoxvirus vaccinia
Vaccinia virus [33] = assay: Antiviral activity against Vaccinia virus WR infected BALB/c mouse assessed as mortality at 3 mg/kg, po treated for 5 days after 72 hrs of viral inoculation; assay type: functional, Orthopoxvirus vaccinia
Vaccinia virus [34] = assay: Antiviral activity against Vaccinia virus WR infected BALB/c mouse assessed as mean death day at 3 mg/kg, po treated for 5 days after 24 hrs of viral inoculation; assay type: functional, Orthopoxvirus vaccinia
Vaccinia virus [35] = assay: Antiviral activity against Vaccinia virus WR infected BALB/c mouse assessed as mean death day at 10 mg/kg, po treated for 5 days after 48 hrs of viral inoculation; assay type: functional, Orthopoxvirus vaccinia
Cowpox virus [36] = assay: Antiviral activity against Cowpox virus Brighton infected BALB/c mouse assessed as mean death day at 3 mg/kg, po treated for 5 days after 24 hrs of viral inoculation; assay type: functional, Cowpox virus (Brighton Red)
Vaccinia virus [37] = assay: Antiviral activity against Vaccinia virus WR infected BALB/c mouse assessed as mortality at 3 mg/kg, po treated for 5 days after 24 hrs of viral inoculation; assay type: functional, Orthopoxvirus vaccinia
Vaccinia virus [38] = assay: Antiviral activity against Vaccinia virus WR infected BALB/c mouse assessed as mean death day at 3 mg/kg, po treated for 5 days after 48 hrs of viral inoculation; assay type: functional, Orthopoxvirus vaccinia
Cowpox virus [39] = assay: Antiviral activity against Cowpox virus Brighton infected BALB/c mouse assessed as mortality at 3 mg/kg, po treated for 5 days after 48 hrs of viral inoculation; assay type: functional, Cowpox virus (Brighton Red)
Cowpox virus [40] = assay: Antiviral activity against Cowpox virus Brighton infected BALB/c mouse assessed as mortality at 30 mg/kg, po treated for 5 days after 24 hrs of viral inoculation; assay type: functional, Cowpox virus (Brighton Red)
Cowpox virus [41] = assay: Toxicity in Cowpox virus Brighton infected BALB/c mouse assessed as survival at 30 mg/kg, po treated for 5 days after 24 hrs of viral inoculation; assay type: functional, organism-based; set-up: dose 30 mg/kg; conditions: Cowpox virus (Brighton Red)

## CCCCCCCCCCCCCCCCOCCCOP(=O)(O)CO[C@H](CO)Cn1cnc2c(N)ncnc21
Vaccinia virus [1]
  Activity: 7%
Cowpox virus [2]
  Activity: inactive
Vaccinia virus [3]
  Activity: 8 days
Cowpox virus [4]
  Activity: 93%
Vaccinia virus [5]
  log10PFU: 4 g
Vaccinia virus [6]
  Activity: 13%
[7]
  selectivity ratio: 485
Cowpox virus [8]
  Activity: 15 days
Cowpox virus [9]
  Activity: 10.1 days
Cowpox virus [10]
  EC50: 0.02 µM
Cowpox virus [11]
  Activity: 13.8 days
Vaccinia virus [12]
  Activity: 11 days
Cowpox virus [13]
  log10PFU: 2.5 g
Vaccinia virus [14]
  EC50: 0.3 µM
Cowpox virus [15]
  Activity: 13%
Cowpox virus [16]
  Activity: 13%
Cowpox virus [17]
  Activity: 27%
Vaccinia virus [18]
  Activity: 9.1 days
Cowpox virus [19]
  Activity: 6.5 days
Cowpox virus [20]
  Activity: 73%
Cowpox virus [21]
  Activity: 12.7 days
Cowpox virus [22]
  Activity: 16.5 days
Cowpox virus [23]
  Activity: 87%
Cowpox virus [24]
  Activity: 12.3 days
Cowpox virus [25]
  Activity: 12.3 days
[26]
  selectivity ratio: 970
Vaccinia virus [27]
  EC50: 0.01 µM
[28]
  CC50 at 168 h: 9.7 µM
Cowpox virus [29]
  Activity: 67%
Vaccinia virus [30]
  Activity: Not toxic
Vaccinia virus [31]
  Activity: 7 days
Vaccinia virus [32]
  Activity: 13%
Vaccinia virus [33]
  Activity: 87%
Vaccinia virus [34]
  Activity: 7 days
Vaccinia virus [35]
  Activity: 8 days
Cowpox virus [36]
  Activity: 11.4 days
Vaccinia virus [37]
  Activity: 27%
Vaccinia virus [38]
  Activity: 9.2 days
Cowpox virus [39]
  Activity: 87%
Cowpox virus [40]
  Activity: 13%
Cowpox virus [41]
  Activity: Not toxic

## CCCCCCCCCCCCCCCCCCOCCOP(=O)(O)CO[C@H](CO)Cn1cnc2c(N)ncnc21
Vaccinia virus [1]
  Activity: 40%
Cowpox virus [2]
  Activity: inactive
Vaccinia virus [3]
  Activity: 10.5 days
Cowpox virus [4]
  Activity: 60%
Vaccinia virus [5]
  log10PFU: 4 g
Vaccinia virus [6]
  Activity: 27%
[7]
  selectivity ratio: 75
Cowpox virus [8]
  Activity: 13 days
Cowpox virus [9]
  Activity: 11.1 days
Cowpox virus [10]
  EC50: 0.02 µM
Cowpox virus [11]
  Activity: 14 days
Vaccinia virus [12]
  Activity: 9.7 days
Cowpox virus [13]
  log10PFU: 2.5 g
Vaccinia virus [14]
  EC50: 0.1 µM
Cowpox virus [15]
  Activity: 13%
Cowpox virus [16]
  Activity: 33%
Cowpox virus [17]
  Activity: 20%
Vaccinia virus [18]
  Activity: 9 days
Cowpox virus [19]
  Activity: 10.6 days
Cowpox virus [20]
  Activity: 67%
Cowpox virus [21]
  Activity: 10.6 days
Cowpox virus [22]
  Activity: 9.5 days
Cowpox virus [23]
  Activity: 93%
Cowpox virus [24]
  Activity: 11 days
Cowpox virus [25]
  Activity: 12.2 days
[26]
  selectivity ratio: 150
Vaccinia virus [27]
  EC50: 0.01 µM
[28]
  CC50 at 168 h: 1.5 µM
Cowpox virus [29]
  Activity: 7%
Vaccinia virus [30]
  Activity: Not toxic
Vaccinia virus [31]
  Activity: 8.3 days
Vaccinia virus [32]
  Activity: 20%
Vaccinia virus [33]
  Activity: 40%
Vaccinia virus [34]
  Activity: 8.8 days
Vaccinia virus [35]
  Activity: 10.3 days
Cowpox virus [36]
  Activity: 13.7 days
Vaccinia virus [37]
  Activity: 67%
Vaccinia virus [38]
  Activity: 7.9 days
Cowpox virus [39]
  Activity: 80%
Cowpox virus [40]
  Activity: 7%
Cowpox virus [41]
  Activity: Not toxic
